# Data reported in PubChem BioAssay (NCI).
#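 Results reflect a 48-hour exposure of cells in 96-well plates to compound at five concentrations. At the GI50, growth is halved. TGI is the concentration that stops growth completely.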
# How the values were obtained:
# Assay in all cases: inhibition of tumour cell growth, NCI panel, 48 h
# 786-0 renal = system: 786-0 renal
# A498 renal = system: A498 renal
# A549 NSCLC = system: A549 NSCLC
# ACHN renal = system: ACHN renal
# BT-549 breast = system: BT-549 breast
# CAKI-1 renal = system: CAKI-1 renal
# CCRF-CEM leukemia = system: CCRF-CEM leukemia
# COLO 205 colon = system: COLO 205 colon
# DU-145 prostate = system: DU-145 prostate
# EKVX NSCLC = system: EKVX NSCLC
# HCC-2998 colon = system: HCC-2998 colon
# HCT-116 colon = system: HCT-116 colon
# HCT-15 colon = system: HCT-15 colon
# HL-60(TB) leukemia = system: HL-60(TB) leukemia
# HOP-62 NSCLC = system: HOP-62 NSCLC
# HOP-92 NSCLC = system: HOP-92 NSCLC
# HS 578T breast = system: HS 578T breast
# HT29 colon = system: HT29 colon
# IGROV1 ovarian = system: IGROV1 ovarian
# K-562 leukemia = system: K-562 leukemia
# KM12 colon = system: KM12 colon
# LOX IMVI melanoma = system: LOX IMVI melanoma
# M14 melanoma = system: M14 melanoma
# MALME-3M melanoma = system: MALME-3M melanoma
# MCF7 breast = system: MCF7 breast
# MDA-MB-231 breast = system: MDA-MB-231 breast
# MDA-MB-435 = system: MDA-MB-435
# MOLT-4 leukemia = system: MOLT-4 leukemia
# NCI-H226 lung = system: NCI-H226 lung
# NCI-H23 lung = system: NCI-H23 lung
# NCI-H460 lung = system: NCI-H460 lung
# NCI-H522 lung = system: NCI-H522 lung
# NCI/ADR-RES ovarian = system: NCI/ADR-RES ovarian
# OVCAR-3 ovarian = system: OVCAR-3 ovarian
# OVCAR-4 ovarian = system: OVCAR-4 ovarian
# OVCAR-5 ovarian = system: OVCAR-5 ovarian
# OVCAR-8 ovarian = system: OVCAR-8 ovarian
# PC-3 prostate = system: PC-3 prostate
# RPMI-8226 leukemia = system: RPMI-8226 leukemia
# RXF 393 renal = system: RXF 393 renal
# SF-268 CNS = system: SF-268 CNS
# SF-295 CNS = system: SF-295 CNS
# SF-539 CNS = system: SF-539 CNS
# SK-MEL-2 melanoma = system: SK-MEL-2 melanoma
# SK-MEL-28 melanoma = system: SK-MEL-28 melanoma
# SK-MEL-5 melanoma = system: SK-MEL-5 melanoma
# SK-OV-3 ovarian = system: SK-OV-3 ovarian
# SN12C renal = system: SN12C renal
# SNB-19 CNS = system: SNB-19 CNS
# SNB-75 CNS = system: SNB-75 CNS
# SR leukemia = system: SR leukemia
# SW-620 colon = system: SW-620 colon
# T-47D breast = system: T-47D breast
# TK-10 renal = system: TK-10 renal
# U251 CNS = system: U251 CNS
# UACC-257 melanoma = system: UACC-257 melanoma
# UACC-62 melanoma = system: UACC-62 melanoma
# UO-31 renal = system: UO-31 renal
smiles,measurement,setting,value
CC(C)CCC[C@@H](C)[C@H]1CC[C@H]2[C@@H]3CC[C@H]4C[C@@H](CCC=C(c5cc(Cl)c(O)c(C(=O)O)c5)c5cc(Cl)c(O)c(C(=O)O)c5)CC[C@]4(C)[C@H]3CC[C@]12C,TGI,786-0 renal,> 100 µM
same,TGI,A498 renal,> 100 µM
same,TGI,A549 NSCLC,> 100 µM
same,TGI,ACHN renal,> 100 µM
same,TGI,BT-549 breast,> 100 µM
same,TGI,CAKI-1 renal,> 100 µM
same,TGI,CCRF-CEM leukemia,> 100 µM
same,TGI,COLO 205 colon,> 100 µM
same,TGI,DU-145 prostate,> 100 µM
same,TGI,EKVX NSCLC,> 100 µM
same,TGI,HCC-2998 colon,> 100 µM
same,TGI,HCT-116 colon,> 100 µM
same,TGI,HCT-15 colon,> 100 µM
same,TGI,HL-60(TB) leukemia,> 100 µM
same,TGI,HOP-62 NSCLC,> 100 µM
same,TGI,HOP-92 NSCLC,> 100 µM
same,TGI,HS 578T breast,> 100 µM
same,TGI,HT29 colon,> 100 µM
same,TGI,IGROV1 ovarian,> 100 µM
same,TGI,K-562 leukemia,> 100 µM
same,TGI,KM12 colon,> 100 µM
same,TGI,LOX IMVI melanoma,> 100 µM
same,TGI,M14 melanoma,> 100 µM
same,TGI,MALME-3M melanoma,> 100 µM
same,TGI,MCF7 breast,> 100 µM
same,TGI,MDA-MB-231 breast,> 100 µM
same,TGI,MDA-MB-435,> 100 µM
same,TGI,MOLT-4 leukemia,> 100 µM
same,TGI,NCI-H226 lung,> 100 µM
same,TGI,NCI-H23 lung,> 100 µM
same,TGI,NCI-H460 lung,> 100 µM
same,TGI,NCI-H522 lung,> 100 µM
same,TGI,NCI/ADR-RES ovarian,> 100 µM
same,TGI,OVCAR-3 ovarian,> 100 µM
same,TGI,OVCAR-4 ovarian,> 100 µM
same,TGI,OVCAR-5 ovarian,> 100 µM
same,TGI,OVCAR-8 ovarian,> 100 µM
same,TGI,PC-3 prostate,> 100 µM
same,TGI,RPMI-8226 leukemia,> 100 µM
same,TGI,RXF 393 renal,> 100 µM
same,TGI,SF-268 CNS,> 100 µM
same,TGI,SF-295 CNS,> 100 µM
same,TGI,SF-539 CNS,> 100 µM
same,TGI,SK-MEL-2 melanoma,> 100 µM
same,TGI,SK-MEL-28 melanoma,> 100 µM
same,TGI,SK-MEL-5 melanoma,> 100 µM
same,TGI,SK-OV-3 ovarian,> 100 µM
same,TGI,SN12C renal,> 100 µM
same,TGI,SNB-19 CNS,> 100 µM
same,TGI,SNB-75 CNS,> 100 µM
same,TGI,SR leukemia,> 100 µM
same,TGI,SW-620 colon,> 100 µM
same,TGI,T-47D breast,> 100 µM
same,TGI,TK-10 renal,> 100 µM
same,TGI,U251 CNS,> 100 µM
same,TGI,UACC-257 melanoma,> 100 µM
same,TGI,UACC-62 melanoma,> 100 µM
same,TGI,UO-31 renal,> 100 µM
COc1ccccc1C#Cc1ccccc1C#CCCCCO,GI50,786-0 renal,13.6 µM
same,TGI,786-0 renal,29.7 µM
same,GI50,A498 renal,13.3 µM
same,TGI,A498 renal,27.9 µM
same,GI50,A549 NSCLC,16.3 µM
same,TGI,A549 NSCLC,36.5 µM
same,GI50,ACHN renal,19.4 µM
same,TGI,ACHN renal,38.6 µM
same,GI50,BT-549 breast,15.5 µM
same,TGI,BT-549 breast,33.4 µM
same,GI50,CAKI-1 renal,19.7 µM
same,TGI,CAKI-1 renal,42.7 µM
same,GI50,CCRF-CEM leukemia,16.3 µM
same,TGI,CCRF-CEM leukemia,85.6 µM
same,GI50,COLO 205 colon,18.3 µM
same,TGI,COLO 205 colon,37.7 µM
same,GI50,DU-145 prostate,14.3 µM
same,TGI,DU-145 prostate,29.5 µM
same,GI50,EKVX NSCLC,15.9 µM
same,TGI,EKVX NSCLC,34.4 µM
same,GI50,HCC-2998 colon,17.9 µM
same,TGI,HCC-2998 colon,35.4 µM
same,GI50,HCT-116 colon,16 µM
same,TGI,HCT-116 colon,36.3 µM
same,GI50,HCT-15 colon,19.9 µM
same,TGI,HCT-15 colon,48.9 µM
same,GI50,HL-60(TB) leukemia,50.8 µM
same,TGI,HL-60(TB) leukemia,> 100 µM
same,GI50,HOP-62 NSCLC,14.6 µM
same,TGI,HOP-62 NSCLC,> 100 µM
same,GI50,HOP-92 NSCLC,13.7 µM
same,TGI,HOP-92 NSCLC,31.1 µM
same,GI50,HS 578T breast,17 µM
same,TGI,HS 578T breast,55.4 µM
same,GI50,HT29 colon,8.58 µM
same,TGI,HT29 colon,29 µM
same,GI50,IGROV1 ovarian,15.3 µM
same,TGI,IGROV1 ovarian,32.2 µM
same,GI50,K-562 leukemia,15.5 µM
same,TGI,K-562 leukemia,> 100 µM
same,GI50,KM12 colon,23.1 µM
same,TGI,KM12 colon,57.8 µM
same,GI50,LOX IMVI melanoma,17.9 µM
same,TGI,LOX IMVI melanoma,36 µM
same,GI50,MALME-3M melanoma,22.4 µM
same,TGI,MALME-3M melanoma,65.6 µM
same,GI50,MCF7 breast,31.7 µM
same,TGI,MCF7 breast,> 100 µM
same,GI50,MDA-MB-231 breast,12.4 µM
same,TGI,MDA-MB-231 breast,27.1 µM
same,GI50,MDA-MB-435,20.2 µM
same,TGI,MDA-MB-435,41.8 µM
same,GI50,MOLT-4 leukemia,19.6 µM
same,TGI,MOLT-4 leukemia,96 µM
same,GI50,NCI-H226 lung,21.4 µM
same,TGI,NCI-H226 lung,49.2 µM
same,GI50,NCI-H23 lung,19.1 µM
same,TGI,NCI-H23 lung,37.7 µM
same,GI50,NCI-H460 lung,15.5 µM
same,TGI,NCI-H460 lung,34.2 µM
same,GI50,NCI-H522 lung,16.3 µM
same,TGI,NCI-H522 lung,33.8 µM
same,GI50,NCI/ADR-RES ovarian,21.9 µM
same,TGI,NCI/ADR-RES ovarian,47.4 µM
same,GI50,OVCAR-3 ovarian,19.8 µM
same,TGI,OVCAR-3 ovarian,47.2 µM
same,GI50,OVCAR-4 ovarian,23.2 µM
same,TGI,OVCAR-4 ovarian,63.1 µM
same,GI50,OVCAR-5 ovarian,16.8 µM
same,TGI,OVCAR-5 ovarian,34.1 µM
same,GI50,OVCAR-8 ovarian,22.6 µM
same,TGI,OVCAR-8 ovarian,74.9 µM
same,GI50,PC-3 prostate,15.4 µM
same,TGI,PC-3 prostate,42.2 µM
same,GI50,RPMI-8226 leukemia,20 µM
same,TGI,RPMI-8226 leukemia,> 100 µM
same,GI50,RXF 393 renal,13.8 µM
same,TGI,RXF 393 renal,29.8 µM
same,GI50,SF-268 CNS,18 µM
same,TGI,SF-268 CNS,45.2 µM
same,GI50,SF-295 CNS,22.1 µM
same,TGI,SF-295 CNS,45.1 µM
same,GI50,SF-539 CNS,14.4 µM
same,TGI,SF-539 CNS,29.1 µM
same,GI50,SK-MEL-2 melanoma,20.1 µM
same,TGI,SK-MEL-2 melanoma,41.6 µM
same,GI50,SK-MEL-28 melanoma,16.8 µM
same,TGI,SK-MEL-28 melanoma,33.4 µM
same,GI50,SK-MEL-5 melanoma,14.1 µM
same,TGI,SK-MEL-5 melanoma,29.5 µM
same,GI50,SK-OV-3 ovarian,17.9 µM
same,TGI,SK-OV-3 ovarian,40.7 µM
same,GI50,SN12C renal,17.5 µM
same,TGI,SN12C renal,34.5 µM
same,GI50,SNB-19 CNS,16.7 µM
same,TGI,SNB-19 CNS,32.8 µM
same,GI50,SNB-75 CNS,12 µM
same,TGI,SNB-75 CNS,26.2 µM
same,GI50,SR leukemia,1.01 µM
same,TGI,SR leukemia,64.4 µM
same,GI50,SW-620 colon,19.2 µM
same,TGI,SW-620 colon,46.4 µM
same,GI50,T-47D breast,18.5 µM
same,TGI,T-47D breast,65.8 µM
same,GI50,TK-10 renal,34.5 µM
same,TGI,TK-10 renal,> 100 µM
same,GI50,U251 CNS,18.7 µM
same,TGI,U251 CNS,37.3 µM
same,GI50,UACC-257 melanoma,20.6 µM
same,TGI,UACC-257 melanoma,38.8 µM
same,GI50,UACC-62 melanoma,16 µM
same,TGI,UACC-62 melanoma,30.7 µM
same,GI50,UO-31 renal,16.8 µM
same,TGI,UO-31 renal,32.8 µM
